The compounds below were run on genotype A, "Long" strain RSV (assay: RSV-A in vitro cytoprotection assay in HEp-2 cells (ATPlite readout of cell viability)). Settings: human respiratory syncytial virus, HEp-2, HEp-2 cells, genotype A “Long” strain RSV, cytoprotection; read-out: Human RSV-A (“Long” strain) EC50.
Assay type: cell-based, Human respiratory syncytial virus
Method in brief: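 Cytoprotection measured as ATP-based luminescence (ATPlite) after 4-day incubation of RSV Long-infected HEp-2 cells (8,000/well, 10% FBS DMEM) with 2-fold serial compound dilutions in duplicate. Identically treated virus-free plate gives cytotoxicity; EC50 calculated from viability.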

Structure (SMILES)	EC50
Cc1cccc(F)c1NC(=O)c1cc2c(s1)-c1ccccc1N(C(=O)c1cccc(N(C)Cc3cccnc3)n1)CC2 [Example 338]	< 400 nM
Cc1cccc(F)c1NC(=O)c1cc2c(s1)-c1ccccc1N(C(=O)c1ccc(-c3c[nH]c4ncccc34)cc1)CC2 [Example 266]	> 800 nM
COc1ccc(-c2cccc(C(=O)N3CCc4cc(C(=O)N(C)C)sc4-c4ccccc43)n2)cn1 [Example 95]	400 to 800 nM
Cc1cccc(F)c1NC(=O)c1cc2c(s1)-c1ccccc1N(C(=O)c1cccc(N3CCOc4c(F)cccc4C3)n1)CC2 [Example 365]	< 400 nM
CC1CN(c2cccc(C(=O)N3CCc4cc(C(=O)NC5CC5)sc4-c4ccccc43)n2)CC(C)O1 (stereo not drawn) [Example 24]	400 to 800 nM
CNC(=O)n1ncc(-c2cccc(C(=O)N3CCc4cc(C(=O)Nc5c(C)cccc5F)sc4-c4ccccc43)n2)c1C1CC1 [Example 218]	< 400 nM
Cc1cccc(F)c1NC(=O)c1cc2c(s1)-c1ccccc1N(C(=O)c1cccc(-c3c[nH]nc3/C=C/c3ccccc3)n1)CC2 [Example 265]	> 800 nM
Cc1cccc(F)c1NC(=O)c1cc2c(s1)-c1ccccc1N(C(=O)c1cccc(NCC3OCc4ccccc43)n1)CC2 (stereo not drawn) [Example 336]	< 400 nM
O=C(NC1CC1)c1nc2c(s1)CCN(C(=O)c1cccc(N3CCCOCC3)n1)c1ccccc1-2 [Example 108]	400 to 800 nM
CN1CCCN(c2cccc(C(=O)N3CCc4cc(C(=O)NC5CC5)sc4-c4ccccc43)n2)CC1 [Example 36]	400 to 800 nM
Cc1cccc(F)c1NC(=O)c1cc2c(s1)-c1ccccc1N(C(=O)c1cccc(N(C)CC3CCCO3)n1)CC2 (stereo not drawn) [Example 461]	< 400 nM
Cc1cccc(F)c1NC(=O)c1cc2c(s1)-c1ccccc1N(C(=O)c1cccc(-c3cnn(Cc4ccccc4)c3-c3ccccn3)n1)CC2 [Example 232]	> 800 nM
Cc1cccc(F)c1NC(=O)c1cc2c(s1)-c1ccccc1N(C(=O)c1cccc(-n3cc(C#N)cn3)n1)CC2 [Example 143]	> 800 nM
Cc1cccc(F)c1NC(=O)c1cc2c(s1)-c1ccccc1N(C(=O)c1cccc(N3CCCOCC3=O)n1)CC2 [Example 401]	> 800 nM
Cc1cccc(F)c1NC(=O)c1cc2c(o1)-c1ccccc1N(C(=O)c1ccc(NC(=O)c3cccnc3N3CC4(CCOCC4)C3)cc1)CC2 [Example 135]	< 400 nM
Cc1cccc(F)c1NC(=O)c1cc2c(s1)-c1ccc(F)cc1N(C(=O)c1cccc(N3C(=O)CC[C@@H]3CN)n1)CC2 [Example 492]	> 800 nM
Cc1cccc(F)c1NC(=O)c1cc2c(s1)-c1ccccc1N(C(=O)c1cccc(N3CC4CC5CC(C4)CC3C5)n1)CC2 [Example 442]	> 800 nM
Cc1cccc(F)c1NS(=O)(=O)c1cc2c(s1)-c1ccccc1N(C(=O)c1cccc(N3CCCOCC3)n1)CC2 [Example 317]	> 800 nM
O=C(NC1CC(F)(F)C1)c1cc2c(s1)-c1ccccc1N(C(=O)c1cccc(-c3c[nH]nc3C3CC3)n1)CC2 [Example 179]	< 400 nM
O=C(NCC1CC1)c1cc2c(s1)-c1ccccc1N(C(=O)c1cccc(N3CCCOCC3)n1)CC2 [Example 100]	< 400 nM
COCCN(c1cccc(C(=O)N2CCc3cc(C(=O)Nc4c(C)cccc4F)sc3-c3ccccc32)n1)C1CC1 [Example 471]	< 400 nM
Cc1cncc(-c2cccc(C(=O)N3CCc4cc(C(=O)NC5CC5)sc4-c4ccccc43)n2)c1 [Example 155]	> 800 nM

Structure (SMILES)	EC50
COC[C@@H]1CCCN1c1cccc(C(=O)N2CCc3cc(C(=O)Nc4c(C)cccc4F)sc3-c3ccccc32)n1 [Example 505]	< 400 nM
Cc1cccc(F)c1NC(=O)c1cc2c(s1)-c1ccccc1N(C(=O)c1cccc(N(C)Cc3ccc4ncccc4c3)n1)CC2 [Example 360]	< 400 nM
Cn1nccc1-c1cccc(C(=O)N2CCc3cc(C(=O)Nc4ccccc4N)sc3-c3ccccc32)n1 [Example 242]	< 400 nM
Cc1cccc(F)c1NC(=O)c1cc2c(s1)-c1ccc(F)cc1N(C(=O)c1cccc(N3C[C@@H](O)C[C@@H]3C)n1)CC2 [Example 493]	< 400 nM
COc1ccc2c(ccn2-c2cccc(C(=O)N3CCc4cc(C(=O)NC5CC5)sc4-c4ccccc43)n2)c1 [Example 113]	> 800 nM
COc1ccccc1CN(C)c1cccc(C(=O)N2CCc3cc(C(=O)Nc4c(C)cccc4F)sc3-c3ccccc32)n1 [Example 341]	< 400 nM
COc1ncc(-c2cccc(C(=O)N3CCc4cc(C(=O)NC5CC5)sc4-c4ccccc43)n2)cc1C [Example 163]	< 400 nM
O=C(NC1CCC(F)(F)CC1)c1cc2c(s1)-c1ccccc1N(C(=O)c1cccc(-c3c[nH]nc3C3CC3)n1)CC2 [Example 175]	< 400 nM
Cc1cccc(F)c1NC(=O)c1cc2c(s1)-c1ccccc1N(C(=O)c1ccc(-c3c[nH]nc3C)cc1)CC2 [Example 269]	> 800 nM
COc1ccc2c(ccn2-c2cccc(C(=O)N3CCc4cc(C(=O)Nc5c(C)cccc5F)sc4-c4ccccc43)n2)c1 [Example 120]	< 400 nM
COCCOc1ccc(-c2cccc(C(=O)N3CCc4cc(C(=O)NC5CC5)sc4-c4ccccc43)n2)cn1 [Example 74]	400 to 800 nM
COC[C@H]1CCCN1c1cccc(C(=O)N2CCc3cc(C(=O)Nc4c(C)cccc4F)sc3-c3ccccc32)n1 [Example 506]	< 400 nM
Cc1cccc(F)c1NC(=O)c1cc2c(s1)-c1ccccc1N(C(=O)c1cccc(-c3coc4cccnc34)n1)CC2 [Example 257]	> 800 nM
Cc1cccc(F)c1NC(=O)c1cc2c(s1)-c1ccccc1N(C(=O)c1cccc(-c3cn[nH]c3-c3ccccc3)n1)CC2 [Example 212]	< 400 nM
O=C(Nc1ccccc1)Nc1cc2c(s1)-c1ccccc1N(C(=O)c1cccc(N3CCOc4ccccc4C3)n1)CC2 [Example 311]	> 800 nM
O=C(NC1CC1)c1cc2c(s1)-c1ccccc1N(C(=O)c1cccc(N3CCOCC3)c1)CC2 [Example 4]	> 800 nM
COc1cccc2c1ccn2-c1cccc(C(=O)N2CCc3cc(C(=O)Nc4c(C)cccc4F)sc3-c3ccccc32)n1 [Example 119]	400 to 800 nM
Cc1cccc(F)c1NC(=O)c1cc2c(s1)-c1ccccc1N(C(=O)c1cccc(-c3c(C)n[nH]c3C)n1)CC2 [Example 209]	< 400 nM
COc1cccc(CN(C)c2cccc(C(=O)N3CCc4cc(C(=O)NC5CC5)sc4-c4ccccc43)n2)c1 [Example 296]	> 800 nM
COc1ccc(C(=O)N2CCc3cc(C(=O)NC4CC4)sc3-c3ccccc32)nc1N1CCOCC1 [Example 39]	> 800 nM
Cc1cccc(F)c1NC(=O)c1cc2c(s1)-c1ccccc1N(C(=O)c1cccc(N3C(=O)OC[C@@H]3C(C)C)n1)CC2 [Example 475]	< 400 nM
O=C(NC1CC1)c1cc2c(s1)-c1ccccc1N(C(=O)c1cccc(N3CC4CCC(C3)O4)n1)CC2 [Example 28]	< 400 nM

Structure (SMILES)	EC50
O=C(NC1CC1)c1cc2c(s1)-c1ccccc1N(C(=O)c1cccc(N3CCOCc4ccccc43)n1)CC2 [Example 320]	> 800 nM
Cc1cccc(F)c1NC(=O)c1cc2c(s1)-c1cccc(F)c1N(C(=O)c1cccc(N3CCOc4ccccc4C3)n1)CC2 [Example 504]	> 800 nM
CN(Cc1cccnc1)c1cccc(C(=O)N2CCc3cc(C(=O)NC4CC4)sc3-c3ccccc32)n1 [Example 295]	> 800 nM
CCS(=O)(=O)n1cc(-c2cccc(C(=O)N3CCc4cc(C(=O)Nc5c(C)cccc5F)sc4-c4ccccc43)n2)c(C2CC2)n1 [Example 220]	400 to 800 nM
Cc1cccc(F)c1NC(=O)c1cc2c(s1)-c1ccccc1N(C(=O)c1cccc(NCC3(S(C)(=O)=O)CC3)n1)CC2 [Example 466]	< 400 nM
CN1Cc2cccc(Nc3cccc(C(=O)N4CCc5cc(C(=O)NC6CC6)sc5-c5ccccc54)n3)c2C1=O [Example 412]	> 800 nM
Cc1cccc(F)c1NC(=O)c1cc2c(s1)-c1ccccc1N(C(=O)c1cccc(NCC3CCCS3(=O)=O)n1)CC2 (stereo not drawn) [Example 462]	< 400 nM
O=C(NC1CC1)c1cc2c(s1)-c1ccccc1N(C(=O)c1cccc(-c3ccnc(C4CC4)c3)n1)CC2 [Example 166]	> 800 nM
Cn1cc(-c2cccc(C(=O)N3CCc4cc(C(=O)NC5CC5)sc4-c4ccccc43)n2)ccc1=O [Example 151]	> 800 nM
Cc1cccc(F)c1NC(=O)c1cc2c(s1)-c1ccccc1N(C(=O)c1cccc(N(C)Cc3cccc(-c4ccncc4)c3)n1)CC2 [Example 346]	400 to 800 nM
Cc1cccc(F)c1NC(=O)c1cc2c(s1)-c1ccccc1N(C(=O)c1cccc(N3CC4(COC4)C3)n1)CC2 [Example 426]	> 800 nM
CNC(=O)c1cc2c(s1)-c1ccccc1N(C(=O)c1cccc(-c3ccc(OC)nc3)n1)CC2 [Example 94]	> 800 nM
O=C(NC1CC1)c1cc2c(s1)-c1ccccc1N(C(=O)c1cccc(-c3ccnc4ccccc34)n1)CC2 [Example 152]	> 800 nM
Cc1cccc(F)c1NC(=O)c1cc2c(s1)-c1ccccc1N(C(=O)c1cccc(-c3ccn(C)n3)n1)CC2 [Example 235]	> 800 nM
Cc1cccc(F)c1NC(=O)c1cc2c(s1)-c1ccccc1N(C(=O)c1cccc(-c3cnc(C4CC4)n3C3CC3)n1)CC2 [Example 200]	< 400 nM
Cc1cc(-c2cccc(C(=O)N3CCc4cc(C(=O)Nc5c(C)cccc5F)sc4-c4ccccc43)n2)n(C)n1 [Example 234]	< 400 nM
CCS(=O)(=O)CCN(C)c1cccc(C(=O)N2CCc3cc(C(=O)Nc4c(C)cccc4F)sc3-c3ccccc32)n1 [Example 325]	< 400 nM
Cc1cccc(F)c1NC(=O)c1cc2c(s1)-c1ccccc1N(C(=O)c1cccc(N(C)C3CCS(=O)(=O)CC3)n1)CC2 [Example 455]	> 800 nM
O=C(NC1CC1)c1cc2c(s1)-c1ccccc1N(C(=O)c1ccnc(N3CCCOCC3)n1)CC2 [Example 52]	400 to 800 nM
Cc1cccc(F)c1NC(=O)c1cc2c(s1)-c1ccccc1N(C(=O)c1cccc(NCc3cccc(C(F)(F)F)n3)n1)CC2 [Example 357]	> 800 nM
O=C(NC1CC1)c1cc2c(s1)-c1ccccc1N(C(=O)c1cccc(N3CCC(F)(F)CC3)n1)CC2 [Example 23]	< 400 nM
Cc1cccc(F)c1NC(=O)c1cc2c(s1)-c1ccccc1N(C(=O)c1cccc(N3CCOc4ccc(Cl)cc4C3)n1)CC2 [Example 417]	< 400 nM

From patent publication US10759816B2, “Heterocyclic compounds as RSV inhibitors” (Enanta Pharmaceuticals, Inc., priority 2016, dated 2020)
